Measurements from publication PMC6591251, “Discovery of potent necroptosis inhibitors targeting RIPK1 kinase activity for the treatment of inflammatory disorder and cancer metastasis” (Cell Death & Disease, 2019).

Experiments:
U937 cells = experiment: TNF-induced necroptosis (T/S/Z), cell viability by ATP levels; type: cell-based; settings: Homo sapiens, U-937, 24 h, T/S/Z 24 h
[1] = test system: mouse embryonic fibroblasts (MEFs); experiment: as above; type: cell-based; settings: Fibroblast, 24 h, MEF, T/S/Z 24 h
[2] = test system: rat bone marrow-derived macrophages; experiment: TNFR- and TLR-mediated necroptosis; type: cell-based; settings: rat BMDM; PK6 10 μM, PK68 100 nM; 24–30 h
Excerpt: (§1) In addition to TNF-induced necroptosis, it is known that TLR3 or TLR4 activation can also trigger necroptosis. We further evaluated the effects of PK6 and PK68 on TLR3- and TLR4-mediated necroptosis induced by poly(I:C)/z-VAD and LPS/z-VAD, respectively. […] To investigate the molecular mechanism of PK series-mediated necroptosis inhibition, we examined the effects of these compounds on the major steps of necroptotic signaling, including activation of RIPK1, RIPK3, and MLKL. […] It has been shown previously that RIPK3 activation leads to the formation of RIPK3 puncta during necroptosis.
(§2) Fig. 3 PK6 and PK68 block cellular activation of RIPK1, RIPK3, and MLKL upon necroptotic stimuli. a, b Bone marrow-derived macrophages from C57BL/6 mice or rat were pretreated with DMSO, PK6(10 μM), or PK68 (100 nM) for 1 h and subsequently treated with indicated stimuli for 24–30 h. Cell viability was determined by measuring ATP levels. L, LPS (20 ng/ml); P, poly(I:C) (50 μg/ml); S (100 nM); Z (10 μM). […] The distribution of RIPK3 was detected by immunofluorescence. *P < 0.05. **P < 0.01. ***P < 0.001 […]
The cell viability was analyzed by using the CellTiter-Glo Luminescent Cell Viability Assay kit following the manufacturer’s instructions (Promega). Luminescence was measured with SpectraMax i3x (Molecular Devices).

[3] = test system: HT-29 cells stably expressing Flag-tagged RIPK3; experiment: RIPK3 puncta formation, immunofluorescence; type: cell-based, human; settings: T 100 ng/ml, S, Z 12 h
Excerpt: as §1
as §2, with “μM). Data are represented as the mean ± standard deviation of triplicates. c HT-29 cells were treated with the indicated compound for 1 h prior to the treatment of T (40 ng/ml), S (100 nM), and Z (20 μM) for additional 8 h.” for “μM).”

[4] = test system: TNF-induced systemic inflammatory response syndrome; experiment: TNF-induced SIRS mouse model; type: in vivo, C57BL/6 mice; settings: for protection against TNFα-induced lethal shock: PK6 30 mg/kg, PK68 1 mg/kg ip, 15 min before TNF-α 6 μg per mouse
Procedure: Necroptosis is involved in a variety of inflammatory disorders such as TNF-induced SIRS[11],[12]. We therefore evaluated the therapeutic effect of PK68 in a mouse model of TNF-induced SIRS. C57BL/6 mice were treated with vehicle, PK6, or PK68 for 15 min prior to intravenous injection of mouse TNFα (6 µg TNFα per mouse). […] SIRS is associated with systemic release of proinflammatory cytokines and tissue injuries. […] Moreover, TNF-induced damage of the colon was attenuated by the treatment of PK68 (Fig. 7d).
Fig. 7 PK68 ameliorates TNF-induced systemic inflammatory response syndrome. C57BL/6 mice (n = 11) were injected with vehicle, PK6 (30 mg/kg), or PK68 (1 mg/kg) via intraperitoneal injection for 15 min, followed by the tail intravenous injection of mouse TNF-α (6 μg per mouse). a, b The survival rate (a) and body temperature loss (b) were monitored. c, d C57BL/6 mice (n = 5) were injected with vehicle or PK68 (1 mg/kg) for 15 min prior to the injection of mouse TNF-α. The mice were sacrificed 4 h after TNF-α administration, the serum concentration of IL-1β was measured by ELISA kits (c), and histology of the colon tissue was analyzed by H&E staining and the representative images are shown (d). The serum or colon tissue from C57BL/6 mice was used as the control (Normal). Magnification: ×100 (left) and ×200 (right). Data represent mean value ± standard deviation. *P < 0.05. **P < 0.01. ***P < 0.001
PK6 and PK68 were diluted into sterile PBS. C57BL/6 mice were pretreated with vehicle, PK6 (30 mg/kg), or PK68 (1 mg/kg) via intraperitoneal injection for around 15 min and then challenged with mouse TNF-α (6 μg per mouse) via tail intravenous injection. Mice mortality was continuously monitored till 72 h after TNF-α administration. The serum and colon tissue are collected at 4 h post TNF-α challenge.

SMILES	EC50 (U937 cells) [µM]	EC50 [1] [µM]	TNFR- and TLR-mediated necroptosis [2]	generation of RIPK3 puncta [3]	protection against TNFα-induced lethal shock [4]	TNFα-induced temperature loss ([4]; 1 mg/kg ip)	TNF-induced damage of the colon ([4]; 1 mg/kg, 4 h after TNF-α)	production of proinflammatory cytokines including IL-1β ([4]; 1 mg/kg, serum 4 h after TNF-α)
CC(=O)Nc1nc2ccc(-c3cnc(Cl)c(NC(=O)Cc4ccccc4)c3)cc2s1 [PK6, N-(5-(2-acetamidobenzo[d]thiazol-6-yl)-2-chloropyridin-3-yl)-2-phenylacetamide]	~1.33	~0.95	showed inhibitory effects	prevented generation of RIPK3 puncta	effective protection	–	–	–
CC(=O)Nc1nc2ccc(-c3cnc(C)c(NC(=O)OC4CCCCC4)c3)cc2s1 [PK68, cyclohexyl (5-(2-acetamidobenzo[d]thiazol-6-yl)-2-methylpyridin-3-yl)carbamate]	–	–	showed inhibitory effects	prevented generation of RIPK3 puncta	effective protection	strongly reduced	attenuated	significantly ameliorated
